Literature values in patent US7052717B2, “Storage stable thyroxine active drug formulations and methods for their production” (Mylan Pharmaceuticals Inc., priority 2001, dated 2006).

Details: high humidity, light or high temperature; Won, Pharm. Res. 9(1):131-137, 1992

**Q.** For `N[C@@H](Cc1cc(I)c(Oc2cc(I)c(O)c(I)c2)c(I)c1)C(=O)O` [Levothyroxine sodium, levothyroxine sodium], which “stability of drug substance” value is on record?
**A.** Its value is “quite unstable, hygroscopic and degrades rapidly when subjected to high humidity, light or high temperature”.
